Measured values published in ChEMBL document CHEMBL6177948, “Discovery of potential Leonurine-based therapeutic lead MJ210 attenuates Parkinson's disease pathogenesis via NF-κB and MAPK pathways: Mechanistic insights from in vitro and in vivo rotenone models” (Eur J Med Chem, 2025).
Active and inactive are the calls of the source. The rule behind the calls is not given here.

Columns and labels:
SH-SY5Y [1] = assay: Reversal of rotenone-induced mitochondrial membrane depolarization in human SH-SY5Y cells assessed as increase in JC-10 aggregation by measuring red fluorescence at 5 uM preincubated with compound for 24 hrs followed by rotenone addition and measured after 24 hrs by JC-10 based fluorescence microscopic analysis; type: functional, cell-based
Rattus norvegicus [2] = assay: Anti-parkinson activity in rotenone-induced male Wistar rat model assessed as increase DAT expression in substantia nigra at 5 mg/kg, ip pretreated with compound every alternative days followed by rotenone addition and measured after 42 days by Western blotting analysis; type: functional, organism-based; details: time 42.0 day
SH-SY5Y [3] = assay: Neuroprotective activity against rotenone-induced neuronal apoptosis in human SH-SY5Y cells assessed as decrease in number of apoptotic cells at 5 uM preincubated with compound for 24 hrs followed by rotenone addition and measured after 24 hrs by Hoechst 33258 staining based fluorescence microscopic analysis; type: functional, cell-based; details: time 48.0 hrs
SH-SY5Y [4] = assay: Inhibition of MAPK signaling pathway in rotenone-induced human SH-SY5Y cells assessed as reduction in ERK1/2 phosphorylation level by ELISA; type: cell-based
Rattus norvegicus [5] = assay: (§1) Anti-parkinson activity in rotenone-induced neurodegeneration in male Wistar rat model assessed as decrease count of pyknotic cells in striatum at 5 mg/kg, ip pretreated with compound every alternative days followed by rotenone addition and measured after 42 days by H and E staining based analysis; type: functional, organism-based; details: time 42.0 day
[6] = Toxicity in male Wistar rat assessed as change in cellular structure of heart at 1 to 10 mg/kg by H and E staining based analysis; type: organism-based; details: in vivo, dose 1-10 mg/kg
Rattus norvegicus [7] = assay: (§2) Anti-parkinson activity in rotenone-induced neurodegeneration in male Wistar rat model assessed as reduction in pyknotic neurons in cortex at 5 mg/kg, ip pretreated with compound every alternative days followed by rotenone addition and measured after 42 days by Nissl staining based analysis; type: functional, organism-based; details: time 42.0 day
Rattus norvegicus [8] = assay: as §2, with “substantia nigra” for “cortex”; type: functional, organism-based; details: time 42.0 day
Rattus norvegicus [9] = assay: Anti-inflammatory activity in rotenone-induced male Wistar rat model assessed as reduction in phosphorylated NF-kappaB P65 protein expression level in substantia nigra at 5 mg/kg, ip pretreated with compound every alternative days followed by rotenone addition and measured after 42 days by ELISA; type: functional, organism-based; details: time 42.0 day
Rattus norvegicus [10] = assay: Anti-parkinson activity in rotenone-induced male Wistar rat model assessed as improvement in t-total metrics at 5 mg/kg, ip pretreated with compound every alternative days followed by rotenone addition and measured after 42 days by pole test; type: functional, organism-based; details: time 42.0 day
SH-SY5Y [11] = assay: Anti-inflammatory activity against rotenone-induced human SH-SY5Y cells assessed as reduction in IL-1beta mRNA expression level by RT-qPCR analysis; type: functional, cell-based
Rattus norvegicus [12] = assay: Anti-parkinson activity in rotenone-induced male Wistar rat model assessed as improvement in bradykinesia at 5 mg/kg, ip pretreated with compound every alternative days followed by rotenone addition and measured after 42 days by pole test; type: functional, organism-based; details: time 42.0 day
SH-SY5Y [13] = assay: Anti-inflammatory activity against rotenone-induced human SH-SY5Y cells assessed as reduction in CoX-2 mRNA expression level by RT-qPCR analysis; type: functional, cell-based
SH-SY5Y [14] = assay: Neuroprotective activity against rotenone-induced cytotoxicity in human SH-SY5Y cells assessed as increase in number of live cells by measuring mean fluorescence intensity; type: functional, cell-based
Rattus norvegicus [15] = assay: Anti-parkinson activity in rotenone-induced neurodegeneration in male Wistar rat model assessed as reduced edema in cortex at 5 mg/kg, ip pretreated with compound every alternative days followed by rotenone addition and measured after 42 days by H and E staining based analysis; type: functional, organism-based; details: time 42.0 day
[16] = Toxicity in male Wistar rat assessed as change in cellular structure of spleen at 1 to 10 mg/kg by H and E staining based analysis; type: organism-based; details: in vivo, dose 1-10 mg/kg
Rattus norvegicus [17] = assay: Anti-parkinson activity in rotenone-induced male Wistar rat model assessed as increase TH expression in striatum at 5 mg/kg, ip pretreated with compound every alternative days followed by rotenone addition and measured after 42 days by Western blotting analysis; type: functional, organism-based; details: time 42.0 day
SH-SY5Y [18] = assay: (§3) Neuroprotective activity against rotenone-induced mitochondrial morphological changes in human SH-SY5Y cells assessed as filamentous mitochondrial shape at 5 uM preincubated with compound for 24 hrs followed by rotenone addition and measured after 24 hrs by Mito Tracker staining based fluorescence microscopic analysis; type: functional, cell-based; details: time 48.0 hrs
[19] = Toxicity in male Wistar rat assessed as change in spleen morphology at 1 to 10 mg/kg by H and E staining based analysis; type: organism-based; details: in vivo, dose 1-10 mg/kg
Rattus norvegicus [20] = assay: Anti-parkinson activity in rotenone-induced neurodegeneration in male Wistar rat model assessed as minimal neuronal loss in substantia nigra at 5 mg/kg, ip pretreated with compound every alternative days followed by rotenone addition and measured after 42 days by H and E staining based analysis; type: functional, organism-based; details: time 42.0 day
Rattus norvegicus [21] = assay: Anti-parkinson activity in rotenone-induced neurodegeneration in male Wistar rat model assessed as decrease neuronal damage in striatum at 5 mg/kg, ip pretreated with compound every alternative days followed by rotenone addition and measured after 42 days by Nissl staining based analysis; type: functional, organism-based; details: time 42.0 day
Rattus norvegicus [22] = assay: Anti-parkinson activity in rotenone-induced male Wistar rat model assessed as increase DAT expression in striatum at 5 mg/kg, ip pretreated with compound every alternative days followed by rotenone addition and measured after 42 days by Western blotting analysis; type: functional, organism-based; details: time 42.0 day
[23] = Half life in male Wistar rat at 50 mg/kg, ip measured after 24 hrs; type: ADME, organism-based; details: in vivo
Rattus norvegicus [24] = assay: (§4) In vivo inhibition of MAPK signaling pathway in rotenone-induced parkinson disease male Wistar rat model assessed as reduction in ERK1/2 phosphorylation level in striatum at 5 mg/kg, ip pretreated with compound every alternative days followed by rotenone addition and measured after 42 days by Western blotting analysis; type: functional, organism-based; details: time 42.0 day
Rattus norvegicus [25] = assay: as §4, with “JNK” for “ERK1/2”; type: functional, organism-based; details: time 42.0 day
SH-SY5Y [26] = assay: as §3, with “intact tubular” for “filamentous mitochondrial shape”; type: functional, cell-based; details: time 48.0 hrs
[27] = Drug excretion in male Wistar rat brain at 50 mg/kg, ip measured after 4.25 hrs; type: ADME, organism-based; details: in vivo
Rattus norvegicus [28] = assay: as §1, with “substantia nigra” for “striatum”; type: functional, organism-based; details: time 42.0 day
[29] = Toxicity in male Wistar rat assessed as change in heart morphology at 1 to 10 mg/kg by H and E staining based analysis; type: organism-based; details: in vivo, dose 1-10 mg/kg
SH-SY5Y [30] = assay: Anti-inflammatory activity against rotenone-induced human SH-SY5Y cells assessed as reduction in iNOS mRNA expression level by RT-qPCR analysis; type: functional, cell-based
Rattus norvegicus [31] = assay: Anti-parkinson activity in rotenone-induced male Wistar rat model assessed as increase in TH expression in substantia nigra at 1 mg/kg, ip pretreated with compound every alternative days followed by rotenone addition and measured after 42 days by Western blotting analysis; type: functional, organism-based; details: time 42.0 day
[32] = Stability in human serum assessed as compound remaining measured after 96 hrs by RP-HPLC analysis relative to control; type: ADME, cell-free; details: read-out: Stability
Rattus norvegicus [33] = assay: Anti-parkinson activity in rotenone-induced neurodegeneration in male Wistar rat model assessed as reduction in necrosis in substantia nigra at 5 mg/kg, ip pretreated with compound every alternative days followed by rotenone addition and measured after 42 days by Nissl staining based analysis; type: functional, organism-based; details: time 42.0 day
SH-SY5Y [34] = assay: as §3, with “ROS generation” for “morphological changes”, “decrease in ROS level” for “filamentous mitochondrial shape”, “MitoSOX red” for “Mito Tracker”; type: functional, cell-based; details: time 48.0 hrs
Rattus norvegicus [35] = assay: Anti-parkinson activity in rotenone-induced male Wistar rat model assessed as decrease in fall time at 5 mg/kg, ip pretreated with compound every alternative days followed by rotenone addition and measured after 42 days by inverted grid test; type: functional, organism-based; details: time 42.0 day

For `COc1cc(CCC(=O)N2CCCCC2)cc(OC)c1OC(=O)c1ccccn1`, the Activity (SH-SY5Y [1]) was “Active”, the Activity (Rattus norvegicus [2]) was “Active” and the Activity (SH-SY5Y [3]) was “Active”. For the same compound, the inhibition (SH-SY5Y [4]) was “Active”, the Activity (Rattus norvegicus [5]) was “Active” and the Activity [6] was “Non-toxic”. For the same compound, the Activity (Rattus norvegicus [7]) was “Active”, the Activity (Rattus norvegicus [8]) was “Active” and the Activity (Rattus norvegicus [9]) was “Active”. The Activity (Rattus norvegicus [10]) was “Active”, the Activity (SH-SY5Y [11]) was “Active” and the Activity (Rattus norvegicus [12]) was “Active”. The Activity (SH-SY5Y [13]) was “Active”, the Activity (SH-SY5Y [14]) was “Active” and the Activity (Rattus norvegicus [15]) was “Active”. The Activity [16] was “Non-toxic”, the Activity (Rattus norvegicus [17]) was “Active” and the Activity (SH-SY5Y [18]) was “Active”. The Activity [19] was “Non-toxic”, the Activity (Rattus norvegicus [20]) was “Active” and the Activity (Rattus norvegicus [21]) was “Active”. The Activity (Rattus norvegicus [22]) was “Active”, the half-life [23] was 8.5 h and the inhibition (Rattus norvegicus [24]) was “Active”. For the same compound, the inhibition (Rattus norvegicus [25]) was “Active”, the Activity (SH-SY5Y [26]) was “Active” and the Drug excretion [27] was “Active”. For the same compound, the Activity (Rattus norvegicus [28]) was “Active”, the Activity [29] was “Non-toxic” and the Activity (SH-SY5Y [30]) was “Active”. The Activity (Rattus norvegicus [31]) was “Active”, the remaining at 96 h [32] was 86% and the Activity (Rattus norvegicus [33]) was “Active”. For the same compound, the Activity (SH-SY5Y [34]) was “Active” and the Activity (Rattus norvegicus [35]) was “Active”.
